Source: EP4656642A1, “ESTROGEN RECEPTOR PROTEOLYSIS TARGETING CHIMERA COMPOUND AND USE THEREOF” (GAN & LEE PHARM CO., LTD, priority 2023, dated 2024)

Experiments:
Assay type in all cases: cell-based
MCF-7 cells = experiment: Inhibition of cell proliferation of MCF-7 cells (CCK-8, 9 days)
In short: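 Read-out was CCK-8 viability after 9-day continuous exposure (37°C, 5% CO2) of MCF-7 cells plated at 800/well in 10% FBS DMEM across several compound concentrations. Values are proliferation IC50s.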

ERα [1] = target: T1, ERα (Homo sapiens, UniProt P03372); experiment: Degradation of ERα in MCF-7 cells (immunoblotting, 4 h)
T1 sequence (P03372 1-595): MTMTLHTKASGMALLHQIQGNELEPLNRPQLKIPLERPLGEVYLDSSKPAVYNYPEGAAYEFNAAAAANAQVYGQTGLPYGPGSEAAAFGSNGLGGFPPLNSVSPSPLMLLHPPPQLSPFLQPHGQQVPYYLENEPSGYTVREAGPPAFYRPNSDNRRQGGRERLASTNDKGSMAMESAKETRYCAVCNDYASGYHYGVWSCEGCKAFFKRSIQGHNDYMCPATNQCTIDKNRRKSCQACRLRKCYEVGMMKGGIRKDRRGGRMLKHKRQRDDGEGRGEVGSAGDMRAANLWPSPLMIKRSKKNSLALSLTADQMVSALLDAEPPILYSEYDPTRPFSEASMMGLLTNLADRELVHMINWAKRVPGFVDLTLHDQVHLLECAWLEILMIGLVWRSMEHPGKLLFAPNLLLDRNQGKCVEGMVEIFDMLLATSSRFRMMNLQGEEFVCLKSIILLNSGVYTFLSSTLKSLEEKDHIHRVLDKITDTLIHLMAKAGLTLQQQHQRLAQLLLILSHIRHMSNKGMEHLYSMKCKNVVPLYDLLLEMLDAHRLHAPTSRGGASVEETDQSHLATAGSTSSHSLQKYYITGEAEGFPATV
In short: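 Degradation rate reflects ERα band intensity, corrected to an internal reference protein, relative to control. Values come from Western blotting of lysates from MCF-7 cells exposed 4 h at 37°C to compounds at final concentrations of 0.15-1000nM.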

T-47D cells = experiment: Inhibition of cell proliferation in T-47D cells (CCK-8, 6 days); conditions: 6 days of treatment
In short: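 Viability read-out was CCK-8 after 6 days of compound treatment (37 °C, 5% CO2) across graded concentrations. Cells were T-47D seeded at 3,000 per well in 1640 medium plus 10% FBS. IC50 was calculated against proliferation.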

ERα [2] = target: T1, ERα; experiment: Degradation of ERα in T-47D cells (immunoblotting, 4 h); set-up: host or cells: T-47D
In short: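 ERα protein levels were assessed by immunoblot of RIPA lysates (with protease inhibitor) after 4 h exposure at 37°C. Compound was added in DMSO to T-47D cells at final concentrations of 0.15-1000 nM.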

[3] = treated for 9 days, CCK-8 kit (Table 6)

| SMILES | IC50 (MCF-7 cells; [3]) | Degradation rate (%) of ERα in MCF-7 cells (ERα [1]; 1nM compound) | Degradation rate (%) of ERα in MCF-7 cells (ERα [1]; 10nM compound) | IC50 (T-47D cells; Table 3) | Degradation rate (%) of ERα in T-47D cells (ERα [2]; 1nM compound) | Degradation rate (%) of ERα in T-47D cells (ERα [2]; 10nM compound) | IC50 (MCF-7 cells; 9 days of treatment, CCK-8, Table 5) | IC50 (T-47D cells; Table 2) |
| --- | --- | --- | --- | --- | --- | --- | --- | --- |
| CCNC(=O)[C@H]1CC(N2CCC3(CC2)COc2c3ccc3c2CN(C2CCC(=O)NC2=O)C3=O)CCN1C1CC2(CCN(c3ccc([C@@H]4c5ccc(O)cc5CC[C@@H]4c4ccccc4)cc3)CC2)C1 (stereo partly drawn) [K26] | 48.2 nM | 67% | 88% | 1.12 nM | 56% | 87% | – | – |
| O=C1CCC(N2Cc3c(ccc4c3OCC43CCN(C4CCN(C5CC6(CCN(c7ccc([C@@H]8c9ccc(O)cc9CC[C@@H]8c8ccccc8)cc7)CC6)C5)[C@@H](C(=O)NC5CC5)C4)CC3)C2=O)C(=O)N1 (stereo partly drawn) [K27] | 33.1 nM | 71% | 86% | 1.05 nM | 69% | 88% | – | – |
| C[C@@H]1Cc2c(ccc3[nH]ncc23)C(c2ccc(N3CCC4(CCC(N5CCC6(CC5)COc5c6ccc6c5CN(C5CCC(=O)NC5=O)C6=O)CC4)CC3)cn2)N1CC(F)(F)F (stereo partly drawn) [K41] | 590 nM | -3% | 64% | 41 nM | 54% | 84% | – | – |
| O=C1CCC(N2Cc3ccc4c(c3C2=O)OC2(CC4)CCN(C3CCC4(CC3)CCN(c3ccc([C@@H]5c6ccc(O)cc6CC[C@@H]5c5ccccc5)cc3)CC4)CC2)C(=O)N1 (stereo partly drawn) [L1] | – | -2% | -29% | – | -9% | -45% | 130 nM | 5.2 nM |
| O=C1CCC(N2Cc3ccc4c(c3C2=O)OCC2(CCN(C3CCC5(CC3)CCN(c3ccc([C@@H]6c7ccc(O)cc7CC[C@@H]6c6ccccc6)cc3)CC5)CC2)C4)C(=O)N1 (stereo partly drawn) [L3] | 130 nM | 23% | 44% | 5 nM | 25% | 54% | – | – |
| O=C1CCC(N2C(=O)c3ccc4c(c3C2=O)OC2(CC4)CCN(C3CCC4(CC3)CN(c3ccc([C@@H]5c6ccc(O)cc6CC[C@@H]5c5ccccc5)cc3)C4)CC2)C(=O)N1 (stereo partly drawn) [L8] | 990 nM | 27% | 27% | 13.5 nM | 32% | 21% | – | – |
| O=C1CCC(N2Cc3ccc4c(c3C2=O)CC2(CCN(C3CCC5(CC3)CN(c3ccc([C@@H]6c7ccc(O)cc7CC[C@@H]6c6ccccc6)cc3)C5)CC2)CO4)C(=O)N1 (stereo partly drawn) [L10] | 925 nM | -11% | -6% | 17.9 nM | 14% | 29% | – | – |
| O=C1CCC(N2Cc3c(ccc4c3OCC43CCN(C4CCC5(CC4)CN(c4ccc([C@@H]6c7ccc(O)cc7CC[C@@H]6c6ccccc6)cc4)C5)CC3)C2=O)C(=O)N1 (stereo partly drawn) [L11] | 5 nM | 37% | 60% | 4 nM | 14% | 69% | – | – |
| O=C1CCC(N2Cc3c(ccc4c3OCC43CCN(C4CCC5(CC4)CCN(c4ccc([C@@H]6c7ccc(O)cc7CC[C@@H]6c6ccccc6)cc4)CC5)CC3)C2=O)C(=O)N1 (stereo partly drawn) [L15] | 19 nM | 18% | 57% | 8.02 nM | 23% | 71% | – | – |
| O=C1CCC(N2Cc3c(ccc4c3OCC43CCN(C4CC5(CCN(c6ccc([C@@H]7c8ccc(O)cc8CC[C@@H]7c7ccccc7)cc6)CC5)C4)CC3)C2=O)C(=O)N1 (stereo partly drawn) [L16] | 39 nM | 29% | 51% | 7.09 nM | 29% | 64% | – | – |
| O=C1CCC(N2Cc3ccc4c(c3C2=O)OCC42CCN(C3CCC4(CC3)CN(c3ccc([C@@H]5c6ccc(O)cc6CC[C@@H]5c5ccccc5)cc3)C4)CC2)C(=O)N1 (stereo partly drawn) [L25] | 757 nM | -20% | 6% | 7.97 nM | -1% | 17% | – | – |
| O=C1CCC(N2Cc3ccc4c(c3C2=O)OCC42CCN(C3CC4(CCN(c5ccc([C@@H]6c7ccc(O)cc7CC[C@@H]6c6ccccc6)cc5)CC4)C3)CC2)C(=O)N1 (stereo partly drawn) [L26] | 828 nM | 10% | 18% | 6.52 nM | -11% | 30% | – | – |
| O=C1CCC(N2Cc3c(ccc4c3OCC43CCN(C(=O)C4CCC5(CC4)CCN(c4ccc([C@@H]6c7ccc(O)cc7CC[C@@H]6c6ccccc6)cc4)CC5)CC3)C2=O)C(=O)N1 (stereo partly drawn) [L27] | > 100000 nM | 24% | 52% | 8.51 nM | 12% | 66% | – | – |
| O=C1CCC(N2Cc3cc4c(cc3C2=O)CCC2(CN(CC3CCC5(CC3)CN(c3ccc([C@@H]6c7ccc(O)cc7CC[C@@H]6c6ccccc6)cc3)C5)C2)O4)C(=O)N1 (stereo partly drawn) [M15] | 48 nM | -23% | -24% | 6 nM | -15% | 13% | – | – |
| O=C1CCC(N2Cc3cc4c(cc3C2=O)OC2(CC4)CCN(C3CC4(CCN(c5ccc([C@@H]6c7ccc(O)cc7CC[C@@H]6c6ccccc6)cc5)CC4)C3)CC2)C(=O)N1 (stereo partly drawn) [M17] | 30 nM | -9% | 0% | 8 nM | 10% | 20% | – | – |
| CN(C1CCN(c2ccc([C@@H]3c4ccc(O)cc4CC[C@@H]3c3ccccc3)cc2)CC1)[C@H]1CC[C@H](C(=O)N2CCC3(CC2)COc2c3ccc3c2CN(C2CCC(=O)NC2=O)C3=O)CC1 (stereo partly drawn) [N2] | 247 nM | -7% | -8% | 3.63 nM | 10% | 42% | – | – |
| CN(CC1CCN(c2ccc([C@@H]3c4ccc(O)cc4CC[C@@H]3c3ccccc3)cc2)CC1)[C@H]1CC[C@H](C(=O)N2CCC3(CC2)COc2c3ccc3c2CN(C2CCC(=O)NC2=O)C3=O)CC1 (stereo partly drawn) [N3] | 195 nM | -4% | 1% | 4.92 nM | 30% | 70% | – | – |
| O=C1CCC(N2Cc3c(ccc4c3OCC43CCN(CCN4CCC5(CCN(c6ccc([C@@H]7c8ccc(O)cc8CC[C@@H]7c7ccccc7)cc6)CC5)C4)CC3)C2=O)C(=O)N1 (stereo partly drawn) [N4] | 132 nM | 54% | 73% | 3 nM | 64% | 85% | – | – |
| O=C1CCC(N2Cc3c(ccc4c3OCC43CCN(C(=O)C(=O)N4CCC5(CCN(c6ccc([C@@H]7c8ccc(O)cc8CC[C@@H]7c7ccccc7)cc6)CC5)C4)CC3)C2=O)C(=O)N1 (stereo partly drawn) [N5] | 34.1 nM | 58% | 69% | 1.79 nM | 63% | 82% | – | – |
| CCN(CC1CCN(c2ccc([C@@H]3c4ccc(O)cc4CC[C@@H]3c3ccccc3)cc2)CC1)[C@H]1CC[C@@H](C(=O)N2CCC3(CC2)COc2c3ccc3c2CN(C2CCC(=O)NC2=O)C3=O)CC1 (stereo partly drawn) [N8] | 25400 nM | -2% | 31% | 6.6 nM | 21% | 55% | – | – |
